In patent EP0262209B1, “SYNERGISTIC PLANT GROWTH REGULATOR COMPOSITIONS” (RHONE POULENC NEDERLAND B.V., priority 1986, dated 1987):

How the values were obtained:
cotton plant = assay: Regrowth of cotton following defoliation, DEF treated plant as standard (Example XIV, Table K); type: in vivo; conditions: for Percent Stimulation: regrowth relative to DEF standard (43 percent), 30 days after treatment
Method: (§1) Solutions of the test compounds and compositions identified in Table F were prepared by dissolving the compounds in acetone/water (50:50 volume/volume) containing 0.1 percent volume/volume of Surfel® spray adjuvant commercially available from Union Carbide Corporation, Danbury, Connecticut. As detailed below, these solutions of test compounds and compositions were applied to cotton plants at a concentration of 0.5 pounds of each active ingredient per acre (0,6 kg/ha) or 2.0 pounds of active ingredient per acre (2,2 kg/ha). The compositions were applied to cotton as mixtures.
(§2) The above solutions were applied to cotton plants growing under field conditions at a spray volume equivalent to 100 gallons per acre 935 l/ha) by use of a carbon dioxide backpack sprayer set at about 30 psig air pressure (2 bar). The application timing coincided with a cotton maturity phase equivalent to about 40 percent open bolls. As a control, a water-acetone solution containing no test compound or composition was also sprayed on the cotton plants. At four days after treatment, percent defoliation of the cotton plants was determined by visual observation. At 14 days after treatment, percent boll opening was determined by visual observation of the number of open bolls/total number of bolls. The percent defoliation and percent boll opening values obtained for the control and each of the test compounds and compositions are reported in Table F as the average of three replications. TABLE F
In a manner similar to the procedure described in Example IX , the effect of cotton regrowth after defoliation was determined for representative synergistic compositions at various rates of application. The percent regrowth inhibition and stimulation in Table R below were determined by visual observation based on the percent of a cotton plant having regrowth using a DEF treated cotton plant as the standard. DEF is commercially available from Mobay Chemical Corporation, Kansas City, Missouri. The average regrowth of a cotton plant treated with DEF was 43 percent. As used in Table R, percent regrowth inhibition resulted from a cotton plant having a regrowth percentage less than 43 percent (DEF standard), and percent regrowth stimulation resulted from a cotton plant having a regrowth percentage greater than 43 percent. The percent regrowth inhibition and stimulation were determined 30 days after treatment.

cotton [1] = assay: Sequential applications, defoliation of cotton (Example XI, Table H); type: in vivo; conditions: Rate 0.25 Pounds per Acre, alone
Method: In a manner similar to the procedure described in Example VI , the defoliation effect on snapbean plants was determined for representative synergistic compositions using both combination (tank mix) and sequential application methods. In the sequential application method, the second compound was applied 78 hours after the first compound. TABLE E
In a manner similar to the procedure described in Example VIII , the defoliation effect on cotton was determined for representative synergistic compositions using sequential application. Ethephon applications were made 7 days after application of the particular malonic acid derivative compound. TABLE H

rank growth cotton = assay: Defoliation of cotton (rank growth) (Example X, Table G); type: in vivo; conditions: Rate 2.0 Pounds per Acre
Method: as §1, §2
In a manner similar to the procedure described in Example IX , the defoliation effect on rank growth cotton was determined for representative synergistic compositions at various rates of application. […] TABLE G

snapbean plants [2] = assay: Combination/sequential applications, defoliation of snapbean plants (Example VIII, Table E); type: in vivo, Phaseolus vulgaris var. Cranberry; conditions: Rate 0.5 Pounds per Acre, applied alone
Method: (§3) Solutions of the test compounds and compositions identified in Table C below were prepared by dissolving the compounds in acetone/water (50:50 volume/volume) containing 0.1 percent volume/volume of Triton X-100 surfactant commercially available from Rhom and Haas Company, Philadelphia, Pennsylvania. As detailed below, these solutions of the test compounds and compositions were applied to snapbean plants at a concentration of 0.25 pounds of each active ingredient per acre (0.28 kg/ha) or 0.50 pounds of each active ingredient per acre (0.56 kg/ha). The compositions were applied to the snapbean plants as a mixture. Ethephon is commercially available from Union Carbide Agricultural Products Company, Inc., Research Triangle Park, North Carolina.
(§4) Into 13.5 centimeter diameter plastic pots containing a potting soil mix, i.e., one-third sandy loam soil, one-third peat moss and one-third perlite by volume, were sown three snapbean seeds (Phaseolus vulgaris var. Cranberry). Five to seven days after planting, the plants were thinned to one plant per pot. […] At 96 hours after treatment, percent defoliation of the snapbean plants was determined by visual observation. […]
In a manner similar to the procedure described in Example VI , the defoliation effect on snapbean plants was determined for representative synergistic compositions using both combination (tank mix) and sequential application methods. […]

snapbean plants [3] = assay: Defoliation of snapbean plants with various ethylene releasing agents (Example XVI, Table M); type: in vivo, Phaseolus vulgaris var. Cranberry
Method: as §3
(§5) Into 13.5 centimeter diameter plastic pots containing a potting soil mix, i.e., one-third sandy loam soil, one-third peat moss and one-third perlite by volume, were sown three snapbean seeds (Phaseolus vulgaris var. Cranberry). Five to seven days after planting, the plants were thinned to one plant per pot. Ten to fourteen days after planting at the time of full expansion of the primary leaves, each concentration of the test compounds and compositions identified in […] (each pot sprayed with a volume equivalent to 180 gallons per acre) - i.e. 1683 l/ha was applied to three snapbean plants as a foliar spray by use of an aspirated spray apparatus set at 10 psig air pressure (517 mmHg). As a control, a water-acetone solution containing no test compound or composition was also sprayed on three snapbean plants. When dry, all or the plants were placed in a greenhouse at a temperature of 80°F ± 5°F (27°C ± 3°C) and humidity of 50 percent ± 5 percent. At 96 hours after treatment, percent defoliation of the snapbean plants was determined by visual observation. The values obtained For the control and each test compound and composition were averaged to obtain the results in Table C.
In a manner similar to the procedure described in Example VI , the defoliation effect on snapbean plants was determined for representative synergistic compositions at various rates of application using various ethylene releasing agents identified in Table M below. The ethylene releasing agents used in […] are known materials which can be prepared by conventional methods.

snapbean plants [4] = assay: Defoliation of snapbean plants at various rates, 72 hours (Example VII, Table D); type: in vivo, Phaseolus vulgaris var. Cranberry; conditions: 72 hours after treatment
Method: as §3, §5
In a manner similar to the procedure described in Example VI, the defoliation effect on snapbean plants was determined for representative synergistic compositions at various rates of application except that percent defoliation of the snapbean plants was determined at 72 hours after treatment. TABLE D

cotton plants = assay: Defoliation and boll opening of cotton under field conditions (Example IX, Table F); type: in vivo; conditions: Rate 2.0 Pounds per Acre
Method: as §1, §2

mature tobacco plants = assay: Leaf ripening (chlorosis) of tobacco (Example XV, Table L); type: in vivo; conditions: Rate 1.0 Pounds per Acre, alone; upper three leaves; 7 days after treatment; control 10
Method: as §3, with “Ethephon is commercially available from Union Carbide Agricultural Products Company, Inc., Research Triangle Park, North Carolina.” left out
as §4, with “Cranberry).” for “Cranberry). Five to seven days after planting, the plants were thinned to one plant per pot.”
In a manner similar to the procedure described in Example VI except that mature tobacco plants were used in place of snapbean plants, the leaf ripening effect of tobacco was determined for representative synergistic compositions at various rates of application. […] Percent tobacco leaf ripening (chlorosis) was determined by visual observation of the upper three leaves of the tobacco plant at 7 days after treatment. […]

cotton [5] = assay: Defoliation of cotton at various rates (Example XII, Table I); type: in vivo; conditions: Rate 0.5 Pounds per Acre, alone
Method: as §1, §2
In a manner similar to the procedure described in Example IX , the defoliation effect on cotton was determined for representative synergistic compositions at various rates of application.

snapbean plants [6] = assay: Defoliation of snapbean plants, foliar spray (Example VI, Table C); type: in vivo, Phaseolus vulgaris var. Cranberry; conditions: Phaseolus vulgaris, foliar, 96 h, read-out: Percent Defoliation
Method: as §3, §5

cotton [7] = assay: Defoliation of cotton at various rates (Example XIII, Table J); type: in vivo; conditions: Rate 0.5 Pounds per Acre, alone
Method: as §1, §2
In a manner similar to the procedure described in Example IX , the defoliation effect on cotton was determined for representative synergistic compositions at various rates of application. TABLE J

[8] = Gossypium hirsutum, 720 h, read-out: Percent Inhibition

O=P(O)(O)CCCl [Ethephon, 2-chloroethylphosphonic acid, reference compound]
inhibition at 560.425 g/ha (cotton plant; [8]): 0%
inhibition at 1120.85 g/ha (cotton plant; [8]): 0%
inhibition at 2241.7 g/ha (cotton plant; [8]): 0%
Percent Stimulation (cotton plant; Rate 0.5 Pounds per Acre): 16%
Percent Stimulation (cotton plant; Rate 1.0 Pounds per Acre): 70%
Percent Stimulation (cotton plant; Rate 2.0 Pounds per Acre): 62%
Percent Defoliation (cotton [1]): 3%
Percent Defoliation (rank growth cotton): 12%
Percent Defoliation (snapbean plants [2]): 0%
Percent Defoliation (snapbean plants [3]; Rate 0.125 Pounds per Acre): 0%
Percent Defoliation (snapbean plants [3]; Rate 0.25 Pounds per Acre): 0%
Percent Defoliation (snapbean plants [3]; Rate 0.50 Pounds per Acre): 0%
Percent Defoliation (snapbean plants [4]; Rate 0.25 Pounds per Acre): 0%
Percent Defoliation (snapbean plants [4]; Rate 0.50 Pounds per Acre): 0%
Percent Boil Opening (cotton plants; 14 days after treatment, control 41): 64%
Percent Defoliation (cotton plants; field conditions, four days after treatment): 5%
Percent Ripening (Chlorosis) (mature tobacco plants): 10%
Percent Defoliation (cotton [5]): 13%
pest or weed control at 280.212 g/ha (snapbean plants [6]): 0%
pest or weed control at 560.425 g/ha (snapbean plants [6]): 21%
Percent Defoliation (cotton [7]): 5%
